Like-named read-outs stand apart in the source and are kept apart here.
What was measured:
[1] = molecular target: full-length human PTPN2 (TC45) (1-387) (Homo sapiens (Human), UniProt P17706); assay: Enzymatic assay used to determine potency of PTPN2 inhibitors (full length PTPN2 DiFMUP assay); assay type: biochemical; details: 0.5 nM PTPN2, 100 μM DiFMUP, 30 min at room temperature
Procedure: Compound activity was determined in an in vitro enzymatic assay using untagged, full-length human PTPN2 (TC45) (1-387) protein. PTPN2 was produced in E. coli as a GST-TEV fusion and the GST was removed by TEV digestion, followed by additional purification to yield full-length PTPN2 (SEQ ID 1). PTPN2 enzyme was diluted in assay buffer (50 mM HEPES pH7.5, 0.2 mM EDTA, 1 mM DTT, 0.02% Brij-35, 0.02% BSA) to a final concentration of 0.5 nM and added to black 384-well non-binding plates (Greiner, 781900). Compounds were subsequently added using a Tecan D300e dispenser. Following a 10 min incubation at room temperature, DiFMUP substrate (ThermoFisher, D22065) was added to a final concentration of 100 μM. Plates were transferred to a SpectraMax plate reader (Molecular Devices) and fluorescence intensity was measured (ex 358, em 455) after a 30 min incubation at room temperature. […] A four-parameter curve fit was used to determine IC50 values from % inhibition data.

[2] = system: murine B16F10 melanoma cell line; assay: B16F10 IFNγ-induced cellular growth inhibition assay (xCELLigence RTCA); assay type: cell-based; details: B16F10 cells, 1 ng/mL mouse IFNγ, AUC of growth curve, read-out: B16 IFNγ Mediated Growth Inhibition Assay: AVG IC50
Procedure: Compound activity was determined using an interferon gamma (IFNγ)-induced cellular growth inhibition assay with the murine B16F10 melanoma cell line on an Agilent xCELLigence Real-Time Cell Analysis platform (RTCA). RTCA E-Plate View 96 plates (Agilent, 300601010) were pre-equilibrated with 50 μL of assay media (DMEM+10% FBS, Gibco 10566-024, Gibco 10082-147) at 37° C. in a humidified incubator before taking an initial measurement of impedance (sweep). B16F10 cells cultured in assay media were dissociated with TrypLE Express (Gibco 12605-010) for five minutes at 37° C., diluted in 3 volumes of assay buffer, centrifuged for 5 minutes at 500×g at room temperature before diluting cells to 7,700 cells/mL in assay media, plating 130 μL/well (1,000 cells/well) in the inner 60 wells of the assay plate, and adding 150 μL of assay media to the outer wells of the plate. Cells were incubated at room temperature for 20 min to allow cells to settle before placing them in the xCELLigence reader and incubating overnight at 37° C., sweeping wells every 15 minutes. After 24 hours, well readings were paused, plates were removed from the incubator and compounds were added using a Tecan D300e dispenser. All wells were normalized to a final concentration of 0.5% DMSO. Following a 30 min incubation at 37° C., recombinant mouse IFNγ (R&D Systems™ 485MI100) was diluted to 10 ng/mL in assay media and 20 μL was added to assay wells (1 ng/mL final concentration). Assay plates were placed in the xCELLigence reader and swept every 15 minutes.

Sequence of full-length human PTPN2 (TC45) (1-387) (P17706 other isoform, or with tags, fused parts or gaps): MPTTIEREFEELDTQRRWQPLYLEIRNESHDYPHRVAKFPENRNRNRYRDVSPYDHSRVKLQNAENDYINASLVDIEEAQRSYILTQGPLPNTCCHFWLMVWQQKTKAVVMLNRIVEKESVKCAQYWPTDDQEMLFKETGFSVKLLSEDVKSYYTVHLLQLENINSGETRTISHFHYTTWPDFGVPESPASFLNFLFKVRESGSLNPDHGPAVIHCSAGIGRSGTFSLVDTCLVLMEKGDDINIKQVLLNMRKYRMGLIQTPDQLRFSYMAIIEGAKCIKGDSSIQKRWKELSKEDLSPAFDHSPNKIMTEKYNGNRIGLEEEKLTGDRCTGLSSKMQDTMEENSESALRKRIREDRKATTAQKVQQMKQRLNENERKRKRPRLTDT

IC50 ([2]; Mus musculus, B16-F10, 48 h) [nM] | IC50 ([2]; 48 hours) [nM] | SMILES | IC50 [1] [nM]
256 | – | CC1(F)CCN(CCc2cc(O)c(N3CC(=O)NS3(=O)=O)c(F)c2)C1 (stereo not drawn) [Example 106] | 2
256 | – | O=C1CN(c2c(O)cc(CCN3CCC4(CC3)CC4)cc2F)S(=O)(=O)N1 [Example 107] | 2
129 | – | CC1(C)CCN(CCc2cc(O)c(N3CC(=O)NS3(=O)=O)c(F)c2)C1 [Example 108] | 2
162 | – | CC[C@H]1CCN(CCc2cc(O)c(N3CC(=O)NS3(=O)=O)c(F)c2)C1 [Example 109] | 3
127 | – | CC[C@@H]1CCN(CCc2cc(O)c(N3CC(=O)NS3(=O)=O)c(F)c2)C1 [Example 110] | 2
371 | – | O=C1CN(c2c(O)cc(CCN3CC4(CCCC4)C3)cc2F)S(=O)(=O)N1 [Example 114] | 7
172 | – | O=C1CN(c2c(O)cc(CCN3CCC4(CCCCC4)C3)cc2F)S(=O)(=O)N1 [Example 116] | 2
3220 | – | CC(C)(C)C1CCN(CCc2cc(O)c(N3CC(=O)NS3(=O)=O)c(F)c2)CC1 [Example 118] | 3
2830 | – | O=C1CN(c2c(O)cc(CCN3CCC(C4CCC4)CC3)cc2F)S(=O)(=O)N1 [Example 121] | 2
943 | – | O=C1CN(c2c(O)cc(CCN3CC4(CCC4)C3)cc2F)S(=O)(=O)N1 [Example 124] | 2
3090 | – | CCC1CCN(CCc2cc(O)c(N3CC(=O)NS3(=O)=O)c(F)c2)CC1 [Example 125] | 2
775 | – | CCC1CN(CCc2cc(O)c(N3CC(=O)NS3(=O)=O)c(F)c2)C1 [Example 126] | 3
660 | – | CC(C)(C)C1CN(CCc2cc(O)c(N3CC(=O)NS3(=O)=O)c(F)c2)C1 [Example 129] | 2
208 | – | O=C1CN(c2c(O)cc(CCN3CCC(CC(F)(F)F)C3)cc2F)S(=O)(=O)N1 (stereo not drawn) [Example 130] | 1
489 | – | O=C1CN(c2c(O)cc(CCN3CCC4(CC4)C3)cc2F)S(=O)(=O)N1 [Example 131] | 1
– | 579 | CC(C)C1CN(CCc2cc(O)c(N3CC(=O)NS3(=O)=O)c(F)c2)C1 [Example 132] | 3
1040 | – | O=C1CN(c2c(O)cc(CCN3CC4CCC3C4)cc2F)S(=O)(=O)N1 (stereo not drawn) [Example 133] | 3
406 | – | C[C@@H]1CCN(CCc2cc(O)c(N3CC(=O)NS3(=O)=O)c(F)c2)C1 [Example 138] | 2
509 | – | C[C@H]1CCN(CCc2cc(O)c(N3CC(=O)NS3(=O)=O)c(F)c2)C1 [Example 139] | 2
370 | – | O=C1CN(c2c(O)cc(CCN3CC(CF)C3)cc2F)S(=O)(=O)N1 [Example 141] | 3
542 | – | O=C1CN(c2c(O)cc(CCN3CC(CC(F)(F)F)C3)cc2F)S(=O)(=O)N1 [Example 142] | 3

Continued, molecule first:

SMILES | IC50 ([2]; Mus musculus, B16-F10, 48 h) [nM] | IC50 ([2]; 48 hours) [nM] | IC50 [1] [nM]
CC(C)CC1CCN(CCc2cc(O)c(N3CC(=O)NS3(=O)=O)c(F)c2)C1 (stereo not drawn) [Example 85] | 331 | – | 2
CCCC1CCN(CCc2cc(O)c(N3CC(=O)NS3(=O)=O)c(F)c2)C1 (stereo not drawn) [Example 86] | 651 | – | 4
CCC1CCN(CCc2cc(O)c(N3CC(=O)NS3(=O)=O)c(F)c2)C1 (stereo not drawn) [Example 87] | 299 | – | 3
CC(C)CCC1CCN(CCc2cc(O)c(N3CC(=O)NS3(=O)=O)c(F)c2)C1 (stereo not drawn) [Example 88] | 1020 | – | 3
O=C1CN(c2c(O)cc(CCN3CCCCC3)cc2F)S(=O)(=O)N1 [Example 90] | 1220 | – | 2
O=C1CN(c2c(O)cc(CCN3CCC(F)(F)C3)cc2F)S(=O)(=O)N1 [Example 91] | > 24000 | – | 36
O=C1CN(c2c(O)cc(CCN3CCC(F)C3)cc2F)S(=O)(=O)N1 (stereo not drawn) [Example 92] | 504 | – | 3
CC1(C)CCN(CCc2cc(O)c(N3CC(=O)NS3(=O)=O)c(F)c2)CC1 [Example 93] | 475 | – | 3
O=C1CN(c2c(O)cc(CCN3CC[C@H](F)C3)cc2F)S(=O)(=O)N1 [Example 94] | 469 | – | 2
O=C1CN(c2c(O)cc(CCN3CC[C@@H](F)C3)cc2F)S(=O)(=O)N1 [Example 95] | 432 | – | 2
O=C1CN(c2c(O)cc(CCN3CCC(C(F)(F)F)C3)cc2F)S(=O)(=O)N1 (stereo not drawn) [Example 96] | 680 | – | 2
O=C1CN(c2c(O)cc(CCN3CCC(F)(F)CC3)cc2F)S(=O)(=O)N1 [Example 98] | 1050 | – | 5
O=C1CN(c2c(O)cc(CCN3CCC4(CCC4)C3)cc2F)S(=O)(=O)N1 [Example 99] | 183 | – | 2
O=C1CN(c2c(O)cc(CCN3CCNCC3)cc2F)S(=O)(=O)N1 [Example 100] | 51000 | – | 5
O=C1CN(c2c(O)cc(CCN3CCC(O)CC3)cc2F)S(=O)(=O)N1 [Example 101] | 1690 | – | 2
O=C1CN(c2c(O)cc(CCN3CCC(CO)C3)cc2F)S(=O)(=O)N1 (stereo not drawn) [Example 102] | 605 | – | 2
O=C1CN(c2c(O)cc(CCN3CCC(O)C3)cc2F)S(=O)(=O)N1 (stereo not drawn) [Example 103] | 13200 | – | 50
O=C1CN(c2c(O)cc(CCN3CCC4(CCC4)CC3)cc2F)S(=O)(=O)N1 [Example 105] | 219 | – | 3

From US20250257059A1, “PROTEIN TYROSINE PHOSPHATASE INHIBITORS AND USES THEREOF” (Nerio Therapeutics, Inc., priority 2022, published 2025)
